From patent US20200281897A1, “INDAZOLE DERIVATIVES FOR CANCER TREATMENT” (Servicio Andaluz de Salud, priority 2016, published 2020)

Tests used:
[1] = system: hematopoietic stem cells (CD34+); experiment: Viability of hematopoietic stem cells from healthy donors (MTT); type: cell-based, human; details: 0-50 μM, 18 hours
Protocol: In vitro studies were carried out using six different human MM cell lines, U266, RPMI8226, MM1S, MM1R, U266-LR7, and RPMI-LR5. For ex vivo assays, human primary cells from healthy donors and MM patients were used (Table 1). Human MM cell lines U266, RPMI8226, and MM1.S were acquired from ATCC and lines U266-LR7, RPMI-LR5, and MM1.R were kindly provided by Dr. Enrique Ocio (Hospital Universitario de Salamanca, Spain). The primary cells were obtained from bone marrow (BM) aspirates or peripheral blood (PB) samples, and the peripheral blood mononuclear cells (PBMCs) were isolated by Ficoll-Hypaque centrifugation and washed twice in phosphate buffered saline (PBS) containing 1% BSA. Hematopoietic stem cells and B and T lymphocytes were isolated from healthy PB donors by positive immunomagnetic separation using human MACS CD34+, CD19+, and CD3+ microbeads, respectively. MM plasma cells were obtained from the bone marrow (BM) of patients with an infiltration of cells of more than 30% (Table 1). […]
The MM cell lines and primary cells were exposed to different doses of indazole compounds, and viability was evaluated at 18, 48, and 72 hours. […] Cell viability was determined using the MTT assay Cell Counting Kit-8 (Dojindo, Kumamoto, Japan) according to the manufacturer's instructions.

[2] = system: U266, U266-LR7, RPMI and RPMI-LR5; experiment: Synergy of WIN-55 with anti-myeloma agents, MTT and combination index; type: cell-based, human
Protocol: The evaluation of the synergy of the indazole compound WIN-55 with other anti-myeloma agents, such as dexamethasone and melphalan, was done by evaluating cell viability by means of an MTT assay.
Unless otherwise indicated, an experiment representative of at least three independent experiments is shown. For all the statistical analyses, the data was analyzed by means of Student's T-test with the SPSS software with a statistical significance P≤0.05. The means and standard deviations were also determined. The synergy was calculated using R as described in the Calcusyn software; a combination index (CI)<1 indicates synergy, and >1 indicates antagonism.

Structure (SMILES): CS(=O)(=O)O.Cc1c(C(=O)c2cccc3ccccc23)c2cccc3c2n1[C@H](CN1CCOCC1)CO3 [WIN-55, (R)-(+)-[2,3-dihydro-5-methyl-3-(4-morpholinomethyl)-pyrrolo[1,2,3]-1,4-benzoxazin-6-yl]-1-naphthalenylmethanone mesylate]
- hematopoietic stem cell viability [1]: not affected
- combination effect (combination index) with dexamethasone ([2]; WIN-55 20 μM (U266, U266-LR7, RPMI-LR5) or 10 μM (RPMI) plus DEX): synergistic effect
- combination effect (combination index) with melphalan ([2]; WIN-55 20 μM (U266, U266-LR7, RPMI-LR5) or 10 μM (RPMI) plus MPH): synergistic effect
